This is an account of results in patent EP0314400A1, “Therapeutically active condensed thiadiazinones” (SMITH KLINE & FRENCH LABORATORIES LIMITED, priority 1987, dated 1989).

For assay [1], the system named is Anaesthetised Cats. The experiment in a line: Cardiac stimulant activity in vivo (anaesthetised cats). The note with it: anaesthetised cats pretreated with pempidine and propranolol, administered intravenously; for ED50: Felis catus, iv, read-out: ED₅₀ (dose to increase left ventricular dp/dt max by 50%). The text has this:
Cardiac Stimulant Activity - In vivo (Anaesthetised Cats)
In anaesthetised cats pretreated with a ganglion blocker (pempidine) and propranolol, the compounds of the Examples cause sustained increases in left ventricular dp/dt max (this is an index of left ventricular contractility) when administered intravenously. The dose to increase left ventricular dp/dt max by 50% is given as the ED₅₀.

Assay [2] concerns the target PDE (type III) enzyme (obtained from cat heart homogenate). The experiment in a line: Inhibition of phosphodiesterase (PDE) (type III). It counts as biochemical. The conditions noted are these: 1 µM cAMP, read-out: IC₅₀. On the procedure:
Inhibition of Phosphodiesterase (PDE) (Type III)
Following the procedure described in EPA-247,724, IC₅₀ values (the concentration of inhibitor required for 50% inhibition of enzyme activity) were obtained by incubation of a PDE (type III) enzyme (obtained from cat heart homogenate) at 1 µM cAMP and a range of inhibitor concentrations from 0.1 x IC₅₀ to 100 x IC₅₀.

pIC50: −log10 of the molar value.

For the compound `Cc1nccn1-c1ccc2c(c1)CC1SC(=O)NN=C21` (centres unmarked) [Example 1, 7-(2-Methyl-1H-imidazol-1-yl)-9,9a-dihydroindeno[1,2-e][1,3,4]thiadiazine-2-(3H)-one], the ED50 in assay [1] worked out at 0.72 µmol/kg. Further, the pIC50 in assay [2] is 6.18.
In the same order, the values of `Cc1cn(-c2ccc3c(c2)CC2SC(=O)NN=C32)cn1` (centres unmarked) [Example 2, 7-(4-Methyl-1H-imidazol-1-yl)-9,9a-dihydroindeno[1,2-e][1,3,4] thiadiazine-2-(3H)-one] are 0.46 µmol/kg and 6.39.
For Amirone [reference compound], the “ED₅₀ (dose to increase left ventricular dp/dt max by 50%)” value in assay [1] is recorded as 5.6 µmol/kg.
